US12459951B2, “Compounds that interact with RAS superfamily proteins for treatment of cancers, inflammatory diseases, rasopathies, and fibrotic disease” (SHY Therapeutics, LLC, priority 2022, dated 2025)

Legend:
Akt phosphorylation = test: Akt Phosphorylation Assay (western blot), Panc-1; type: cell-based, human; settings: at 10 μM, * = activation
Procedure, shortened: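 Panc-1 (KRas G12D) cells were treated with compound at 10 μM final (0.3% DMSO) for 6 h at 37 °C, or with serial dilutions for IC50. Cells were either serum-starved overnight in 0.5% FBS and then stimulated with 1.5 ng/ml EGF for 15 min, or kept in 10% FBS without stimulation. Akt Ser473 phosphorylation in lysates was read by western blot.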

KRas G12C mutant = test: Ras GTP Binding Domain Inhibition Assay (Ras Superfamily Assay); settings: 20 μM compound; for KRas G12C mutant + SOS: % inh.: with SOS; for KRas G12C mutant: % inh.: without SOS
Procedure, shortened: (§1)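 His-tagged GTPases immobilised on nickel-coated plates, pre-incubated with compound (20 μM single point, or serial dilution for IC50) 3 h at room temperature, with or without 10-30 μg/mL Sos (residues 556-1049) in the final hour. Bound Cy3- or Cy5-GTP (100 nM, 45 min) measured by fluorescence after washing.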

Rac-1 = biological target: T1, Rac-1 (Homo sapiens, UniProt P63000); test: as above; settings: read-out: Rac-1: % inh.
T1 construct: made in house
Procedure, shortened: as §1

KRas Q61H mutant = test: as above; settings: 20 μM compound; for KRas Q61H mutant + SOS: % inh.: with SOS; for KRas Q61H mutant: % inh.: without SOS
Procedure, shortened: as §1

KRas wild type = test: as above; settings: 20 μM compound; for KRas wild type + SOS: % inh.: with SOS; for KRas wild type: % inh.: without SOS
Procedure, shortened: as §1

Rho-A = biological target: T2, Rho-A (Homo sapiens, UniProt P61586); test: as above; settings: read-out: Rho-A: % inh..
T2 construct: made in house
Procedure, shortened: as §1

KRas G12D mutant = test: as above; settings: 20 μM compound; for KRas G12D mutant + SOS: % inh.: with SOS; for KRas G12D mutant: % inh.: without SOS
Procedure, shortened: as §1

T2 sequence (P61586 whole entry): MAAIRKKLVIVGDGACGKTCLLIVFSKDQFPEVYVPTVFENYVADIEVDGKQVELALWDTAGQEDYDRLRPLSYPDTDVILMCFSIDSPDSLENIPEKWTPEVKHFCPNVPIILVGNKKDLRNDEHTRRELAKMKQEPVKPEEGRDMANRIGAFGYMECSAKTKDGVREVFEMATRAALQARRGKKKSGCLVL

Row | SMILES | % inh of Akt phosphorylation in Panc-1 (Akt phosphorylation) | KRas G12C mutant + SOS: % inh. (KRas G12C mutant) | KRas G12C mutant: % inh. (KRas G12C mutant) | inhibition at 20 µM (Rac-1) | KRas Q61H mutant + SOS: % inh. (KRas Q61H mutant) | KRas Q61H mutant: % inh. (KRas Q61H mutant) | KRas wild type + SOS: % inh. (KRas wild type) | KRas wild type: % inh. (KRas wild type) | inhibition at 20 µM (Rho-A) | KRas G12D mutant + SOS: % inh. (KRas G12D mutant) | KRas G12D mutant: % inh. (KRas G12D mutant)
1 | COc1cnc(Nc2nc(-c3nccn3C)nn3cc(-c4ccn(C(C)C)n4)c(C)c23)nc1 [Compound 56, 6-(1-Isopropyl-1H-pyrazol-3-yl)-N-(5-methoxypyrimidin-2-yl)-5-methyl-2-(1-methyl-1H-imidazol-2-yl)pyrrolo[2,1-f][1,2,4]triazin-4-amine] | B* (26-49% activation) | A (A = 1-25% inhibition) | C (C = 50-75% inhibition) | 50 to 75% | D (D = 76-100% inhibition) | C (C = 50-75% inhibition) | 0 (0 = 0% inhibition) | B (B = 26-49% inhibition) | 50 to 75% | B (B = 26-49% inhibition) | B (B = 26-49% inhibition)
2 | COc1ccnc(Nc2nc(-c3nccn3C)nn3cc(-c4ccn(C(C)C)n4)c(C)c23)n1 [Compound 53, 6-(1-Isopropyl-1H-pyrazol-3-yl)-N-(4-methoxypyrimidin-2-yl)-5-methyl-2-(1-methyl-1H-imidazol-2-yl)pyrrolo[2,1-f][1,2,4]triazin-4-amine] | A* (1-25% activation) | C (C = 50-75% inhibition) | C (C = 50-75% inhibition) | 76 to 100% | D (D = 76-100% inhibition) | D (D = 76-100% inhibition) | C (C = 50-75% inhibition) | C (C = 50-75% inhibition) | 76 to 100% | C (C = 50-75% inhibition) | C (C = 50-75% inhibition)
3 | COc1ccnc(Nc2nc(-c3nccn3C)nn3cc(-c4ccn(C(C)C)n4)c(C)c23)c1 [Compound 58, 6-(1-Isopropyl-1H-pyrazol-3-yl)-N-(4-methoxypyridin-2-yl)-5-methyl-2-(1-methyl-1H-imidazol-2-yl)pyrrolo[2,1-f][1,2,4]triazin-4-amine] | A* (1-25% activation) | C (C = 50-75% inhibition) | D (D = 76-100% inhibition) | 76 to 100% | D (D = 76-100% inhibition) | C (C = 50-75% inhibition) | D (D = 76-100% inhibition) | D (D = 76-100% inhibition) | 76 to 100% | D (D = 76-100% inhibition) | D (D = 76-100% inhibition)
4 | Cc1c(-c2ccn(C(C)C)n2)cn2nc(-c3nccn3C)nc(Nc3ncco3)c12 [Compound 60, N-(6-(1-Isopropyl-1H-pyrazol-3-yl)-5-methyl-2-(1-methyl-1H-imidazol-2-yl)pyrrolo[2,1-f][1,2,4]triazin-4-yl)oxazol-2-amine] | D* (85-100% activation) | 0 (0 = 0% inhibition) | A (A = 1-25% inhibition) | 1 to 25% | C (C = 50-75% inhibition) | B (B = 26-49% inhibition) | A (A = 1-25% inhibition) | A (A = 1-25% inhibition) | 1 to 25% | A (A = 1-25% inhibition) | A (A = 1-25% inhibition)
5 | Cc1c(-c2ccn(C(C)C)n2)cn2nc(-c3nccn3C)nc(Nc3ccncn3)c12 [Compound 55, 6-(1-Isopropyl-1H-pyrazol-3-yl)-5-methyl-2-(1-methyl-1H-imidazol-2-yl)-N-(pyrimidin-4-yl)pyrrolo[2,1-f][1,2,4]triazin-4-amine] | A* (1-25% activation) | C (C = 50-75% inhibition) | B (B = 26-49% inhibition) | 76 to 100% | D (D = 76-100% inhibition) | D (D = 76-100% inhibition) | C (C = 50-75% inhibition) | D (D = 76-100% inhibition) | 76 to 100% | C (C = 50-75% inhibition) | D (D = 76-100% inhibition)
6 | COc1cccc(Nc2nc(-c3nccn3C)nn3ccc(C)c23)n1 [Compound 38, N-(6-Methoxypyridin-2-yl)-5-methyl-2-(1-methyl-1H-imidazol-2-yl)pyrrolo[2,1-f][1,2,4]triazin-4-amine] | 0 (0% inhibition) | 0 (0 = 0% inhibition) | 0 (0 = 0% inhibition) | 0% | 0 (0 = 0% inhibition) | 0 (0 = 0% inhibition) | 0 (0 = 0% inhibition) | 0 (0 = 0% inhibition) | 1 to 25% | 0 (0 = 0% inhibition) | 0 (0 = 0% inhibition)
7 | COc1cccc(-c2cn3nc(-c4nccn4C)nc(N[C@@H]4CC[C@H](OC)C4)c3c2-c2ccccc2)c1Cl (racemic) [Compound 33, rac 6-(2-Chloro-3-methoxyphenyl)-N-((1R,3S)-3-methoxycyclopentyl)-2-(1-methyl-1H-imidazol-2-yl)-5-phenylpyrrolo[2,1-f][1,2,4]triazin-4-amine] | D (85-100% inhibition) | 0 (0 = 0% inhibition) | A (A = 1-25% inhibition) | 0% | 0 (0 = 0% inhibition) | A (A = 1-25% inhibition) | 0 (0 = 0% inhibition) | A (A = 1-25% inhibition) | 1 to 25% | 0 (0 = 0% inhibition) | A (A = 1-25% inhibition)
8 | COCC1CCN(c2nc(-c3ccccn3)nn3cc(-c4ccn(C(C)C)n4)c(-c4ccccc4)c23)C1 (racemic) [Compound 25, rac 6-(1-Isopropyl-1H-pyrazol-3-yl)-4-(3-(methoxymethyl)pyrrolidin-1-yl)-5-phenyl-2-(pyridin-2-yl)pyrrolo[2,1-f][1,2,4]triazine] | D (85-100% inhibition) | A (A = 1-25% inhibition) | A (A = 1-25% inhibition) | 1 to 25% | A (A = 1-25% inhibition) | A (A = 1-25% inhibition) | A (A = 1-25% inhibition) | A (A = 1-25% inhibition) | 1 to 25% | A (A = 1-25% inhibition) | A (A = 1-25% inhibition)
9 | COCCCNc1nc(-c2nccn2C)nn2cc(-c3cccc(OC)c3Cl)c(-c3ccccc3)c12 [Compound 30, 6-(2-Chloro-3-methoxyphenyl)-N-(3-methoxypropyl)-2-(1-methyl-1H-imidazol-2-yl)-5-phenylpyrrolo[2,1-f][1,2,4]triazin-4-amine] | D (85-100% inhibition) | 0 (0 = 0% inhibition) | A (A = 1-25% inhibition) | 0% | 0 (0 = 0% inhibition) | 0 (0 = 0% inhibition) | 0 (0 = 0% inhibition) | A (A = 1-25% inhibition) | 1 to 25% | A (A = 1-25% inhibition) | 0 (0 = 0% inhibition)
